From US20070135997A1, “Methods for analysis of biological dataset profiles” (priority 2003, published 2007)
“Also recorded” adds a separate entry of the source.

System: VCAM-1 expression in human umbilical vein endothelial cells (HUVEC)
Assay: Cell-based ELISA of VCAM-1 expression in cytokine-stimulated, gene-transduced endothelial cells
Description: Cytokines, antibodies, and cell culture. Recombinant human IFN-γ, TNF-α, and IL-1βwere from R&D Systems, Murine IgG from Sigma, Mouse anti-human ICAM-1 (clone B4H10) from Beckman Coulter and mouse anti-human E-selectin (clone ENA1) from HyCult Biotechnology. Unconjugated mouse antibodies against human VCAM-1 (clone 51-10C9), CD31 (clone WM-59), HLA-DR (clone G46-6), MIG (clone B8-77), and MCP-1 (clone 5D3-F7) were from BD Biosciences. Mouse anti-human IL-8 (clone 6217.111) was from R&D Systems. PD098059 was from Calbiochem. EGM-2 medium and required supplements were from Clonetics. Human umbilical vein endothelial cells (HUVEC) were from Clonetics; cultured in microtiter plates in EGM-2 medium containing manufacturer's supplements plus 2% heat-inactivated fetal bovine serum. […] PD098059 (3.7 μM final concentration) was added 1 hr before stimulation and was present during the whole 24 hr stimulation period.
Cell-based ELISAs. Cell-based ELISAs were carried out as previously described. Briefly, microtiter plates containing treated and stimulated HUVEC were blocked, and then incubated with primary antibodies or isotype control antibodies (0.01-0.5 μg/ml) for 1 hr. After washing, plates were then incubated with a peroxidase-conjugated anti-mouse IgG secondary antibody (Promega) for 1 hr. Plates were washed and developed with TMB substrate (Clinical Science Products) and the optical density (OD) was read at 450 nm (subtracting the background absorbance at 650 nm) on a SpectraMAX 190 plate reader (Molecular Devices).
Retroviral gene transduction. Test genes were cloned into a vector derived from the MoMLV-based vector pFB (Stratagene) downstream of the MoMLV LTR. A truncated form of the human nerve growth factor receptor (NGFR) preceded by an internal ribosomal entry site was used as a marker gene. Retroviral vector plasmid DNA was transfected into AmphoPack-293 cells (Clontech) by a modified calcium phosphate method according to the manufacturer's protocol (MBS transfection kit, Stratagene). Cell supernatants were harvested 48 hours post-transfection, filtered to remove cell debris (0.45 μm), and transferred onto exponentially growing HUVEC. DEAE dextran (10 μg/ml) was added to facilitate transduction. After 5-8 hr, the viral supernatant was removed and cells were cultured for an additional 40 hours. Gene transfer efficiency was determined by flow cytometric analysis using an NGFR-specific monoclonal antibody and was typically ≧70%.

| Molecule | Effect on VCAM-1 expression when the RAS/MAPK pathway is activated (HUVEC over-expressing MYD88, RAS*, MEK1* or MEK2* or IL-1β-stimulated, PD098059 3.7 μM added 1 hr before 24 hr cytokine stimulation) | Effect on VCAM-1 expression in TNF-α-treated cells (HUVEC treated with TNF-α, PD098059 3.7 μM added 1 hr before 24 hr stimulation) | Effect of IL-1β on TNF-induced VCAM-1 expression (HUVEC stimulated with 10 ng/ml TNF + 1 ng/ml IL-1) | Effect of IL-1β on TNF-induced VCAM-1 expression (HUVEC stimulated with 10 ng/ml TNF + 1 ng/ml IL-1, listed as IL-1) |
| --- | --- | --- | --- | --- |
| COc1cccc(-c2cc(=O)c3ccccc3o2)c1N [PD098059] | reversed the effect of MYD88 or RAS* over-expression; also recorded: increases VCAM-1 expression | no effect |  |  |
| IL-1β: Recombinant human IL-1β from R&D Systems, pro-inflammatory cytokine |  |  | reduce the level of VCAM-1 expression | modulates the VCAM-1 expression induced by TNF |
